*1 amine or outer side, *2 acyl side, *3 side chain or, on linkers, in order; H or OH if unused. Where a SMILES comes first, the peptide text is derived from it. Side-chain parts run from the residue outwards. The star is where a group is joined. C18 diacid = O=C(O)CCCCCCCCCCCCCCCCC(=O)*; γGlu = O=C(O)[C@H](CCC(=O)[*:2])N[*:1]; Isovaleryl = CC(C)CC(=O)*; AEEA = NCCOCCOCC(=O)O
Molecular target: T1, Human Neuropeptide Y2 Receptor (Homo sapiens, UniProt P49146)
T1 construct: purchased CHEMICON HTS066M
T1 sequence (P49146 1-381): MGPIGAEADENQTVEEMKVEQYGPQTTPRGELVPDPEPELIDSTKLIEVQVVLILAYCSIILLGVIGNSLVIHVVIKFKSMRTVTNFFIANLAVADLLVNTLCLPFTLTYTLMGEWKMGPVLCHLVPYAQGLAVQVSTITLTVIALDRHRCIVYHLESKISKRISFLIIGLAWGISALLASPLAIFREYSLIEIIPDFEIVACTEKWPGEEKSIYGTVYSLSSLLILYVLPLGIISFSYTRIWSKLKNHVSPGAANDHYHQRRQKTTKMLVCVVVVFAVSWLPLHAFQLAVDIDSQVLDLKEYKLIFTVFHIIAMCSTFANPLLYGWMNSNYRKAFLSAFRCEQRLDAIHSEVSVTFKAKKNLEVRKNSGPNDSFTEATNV
Experiment: Radioligand binding competition assay (RLB)
Details: Table 3; human 125I-PYY (1-36) 0.02 nM, Y2 receptor membranes; read-out: Ki
Procedure, shortened: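 Membranes (0.5 μg/well) and test peptides, serially diluted from 1 mM DMSO stocks, were incubated 2 hours at room temperature in HEPES buffer pH 7.4 with Mg, Ca and ovalbumin.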

SMILES	Ki
CC[C@H](C)[C@H](NC(=O)[C@H](CCCCNC(=O)COCCOCCNC(=O)COCCOCCNC(=O)CC[C@H](NC(=O)CCCCCCCCCCCCCCCCC(=O)O)C(=O)O)NC(=O)[C@H](CCC(=O)O)NC(=O)[C@@H]1CCCN1C(=O)[C@H](C)NC(=O)CC(C)C)C(=O)N[C@@H](CCC(=O)O)C(=O)N[C@@H](CCC(=O)O)C(=O)N[C@@H](CCC(=O)O)C(=O)N[C@@H](C)C(=O)N[C@@H](CO)C(=O)N1CCC[C@H]1C(=O)N[C@@H](CCC(=O)O)C(=O)N[C@@H](CCC(=O)O)C(=O)N[C@@H](CC(C)C)C(=O)N[C@@H](CCC(N)=O)C(=O)N[C@@H](CCCNC(=N)N)C(=O)N[C@@H](Cc1ccc(O)cc1)C(=O)N[C@@H](Cc1ccc(O)cc1)C(=O)N[C@H](C(=O)N[C@@H](CO)C(=O)N[C@@H](CC(C)C)C(=O)N[C@@H](CCCNC(=N)N)C(=O)N[C@@H](Cc1c[nH]cn1)C(=O)N[C@@H](Cc1ccc(O)cc1)C(=O)N[C@@H](Cc1ccc(O)cc1)C(=O)N[C@@H](CC(N)=O)C(=O)N[C@@H](Cc1c[nH]c2ccccc12)C(=O)N[C@@H](CC(C)C)C(=O)N[C@H](C(=O)N[C@@H](CCCNC(=N)N)C(=O)N[C@@H](CCC(N)=O)C(=O)N[C@@H](CCCNC(=N)N)C(=O)N[C@@H](Cc1ccc(O)cc1)C(N)=O)[C@@H](C)O)C(C)C [Compound 210, N{alpha-4}-(3-methylbutanoyl)-N{epsilon-7}-[2-(2-{2-[2-(2-{2-[(4S)-4-carboxy-4-(17-carboxyheptadecanamido)butanamido]ethoxy}ethoxy)acetamido]ethoxy}ethoxy)acetamido]-[4A,7K,8I,9E,11E,18Q,22V,28Y,30W,31L]hPYY (4-36)] (Isovaleryl-APEK([AEEA-AEEA-γGlu-C18 diacid])IEEEASPEELQRYYVSLRHYYNWLTRQRY-NH2)	10.5 nM
CC(C)CC(=O)N[C@@H](C)C(=O)N1CCC[C@H]1C(=O)N[C@@H](CCC(=O)O)C(=O)N[C@@H](CCCCNC(=O)COCCOCCNC(=O)COCCOCCNC(=O)CC[C@H](NC(=O)CCCCCCCCCCCCCCCCC(=O)O)C(=O)O)C(=O)N1CCC[C@H]1C(=O)N[C@@H](CCC(=O)O)C(=O)N[C@@H](CCC(=O)O)C(=O)N[C@@H](CC(=O)O)C(=O)N[C@H](C(=O)N[C@@H](C)C(=O)N1CCC[C@H]1C(=O)N[C@@H](CCC(=O)O)C(=O)N[C@@H](CCC(=O)O)C(=O)N[C@@H](CC(C)C)C(=O)N[C@@H](CCC(N)=O)C(=O)N[C@@H](CCCNC(=N)N)C(=O)N[C@@H](Cc1ccc(O)cc1)C(=O)N[C@@H](Cc1ccc(O)cc1)C(=O)N[C@H](C(=O)N[C@@H](CO)C(=O)N[C@@H](CC(C)C)C(=O)N[C@@H](CCCNC(=N)N)C(=O)N[C@@H](Cc1c[nH]cn1)C(=O)N[C@@H](Cc1ccc(O)cc1)C(=O)N[C@@H](Cc1ccc(O)cc1)C(=O)N[C@@H](CC(N)=O)C(=O)N[C@@H](Cc1c[nH]c2ccccc12)C(=O)N[C@@H](CC(C)C)C(=O)N[C@H](C(=O)N[C@@H](CCCNC(=N)N)C(=O)N[C@@H](CCC(N)=O)C(=O)N[C@@H](CCCNC(=N)N)C(=O)N[C@@H](Cc1ccc(O)cc1)C(N)=O)[C@@H](C)O)C(C)C)[C@@H](C)O [Compound 212, N{alpha-4}-(3-methylbutanoyl)-N{epsilon-7}-[2-(2-{2-[2-(2-{2-[(4S)-4-carboxy-4-(17-carboxyheptadecanamido)butanamido]ethoxy}ethoxy)acetamido]ethoxy}ethoxy)acetamido]-[4A,7K,9E,12T,13A,18Q,22V,28Y,30W,31L]hPYY (4-36)]	20.3 nM

Continued, values first:

Ki	SMILES
5.69 nM	CC(C)CC(=O)N[C@@H](C)C(=O)N1CCC[C@H]1C(=O)N[C@@H](CCC(=O)O)C(=O)N[C@@H](CCCCNC(=O)COCCOCCNC(=O)COCCOCCNC(=O)CC[C@H](NC(=O)CCCCCCCCCCCCCCCCC(=O)O)C(=O)O)C(=O)N1CCC[C@H]1C(=O)N[C@@H](CCC(=O)O)C(=O)N[C@@H](CCC(=O)O)C(=O)N[C@@H](CC(=O)O)C(=O)N[C@@H](C)C(=O)N[C@@H](CCC(=O)O)C(=O)N1CCC[C@H]1C(=O)N[C@@H](CCC(=O)O)C(=O)N[C@@H](CCC(=O)O)C(=O)N[C@H](C(=O)N[C@@H](CCC(N)=O)C(=O)N[C@@H](CCCNC(=N)N)C(=O)N[C@@H](Cc1ccc(O)cc1)C(=O)N[C@@H](Cc1ccc(O)cc1)C(=O)N[C@H](C(=O)N[C@@H](CO)C(=O)N[C@@H](CC(C)C)C(=O)N[C@@H](CCCNC(=N)N)C(=O)N[C@@H](Cc1c[nH]cn1)C(=O)N[C@@H](Cc1ccc(O)cc1)C(=O)N[C@@H](Cc1ccc(O)cc1)C(=O)N[C@@H](CC(N)=O)C(=O)N[C@@H](Cc1c[nH]c2ccccc12)C(=O)N[C@@H](CC(C)C)C(=O)N[C@H](C(=O)N[C@@H](CCCNC(=N)N)C(=O)N[C@@H](CCC(N)=O)C(=O)N[C@@H](CCCNC(=N)N)C(=O)N[C@@H](Cc1ccc(O)cc1)C(N)=O)[C@@H](C)O)C(C)C)[C@@H](C)O [Compound 199, N{alpha-4}-(3-methylbutanoyl)-N{epsilon-7}-[2-(2-{2-[2-(2-{2-[(4S)-4-carboxy-4-(17-carboxyheptadecanamido)butanamido]ethoxy}ethoxy)acetamido]ethoxy}ethoxy)acetamido]-[4A,7K,9E,13E,17T,18Q,22V,28Y,30W,31L]hPYY (4-36)]
3.35 nM	CC(C)CC(=O)N[C@@H](C)C(=O)N1CCC[C@H]1C(=O)N[C@@H](CCC(=O)O)C(=O)N[C@@H](CCCCNC(=O)COCCOCCNC(=O)COCCOCCNC(=O)CC[C@H](NC(=O)CCCCCCCCCCCCCCCCC(=O)O)C(=O)O)C(=O)N1CCC[C@H]1C(=O)N[C@@H](CCC(=O)O)C(=O)N[C@@H](CCC(=O)O)C(=O)N[C@@H](CCC(=O)O)C(=O)N[C@@H](C)C(=O)N[C@@H](CO)C(=O)N1CCC[C@H]1C(=O)N[C@@H](CCC(=O)O)C(=O)N[C@@H](CCC(=O)O)C(=O)N[C@H](C(=O)N[C@@H](CCC(N)=O)C(=O)N[C@@H](CCCNC(=N)N)C(=O)N[C@@H](Cc1ccc(O)cc1)C(=O)N[C@@H](Cc1ccc(O)cc1)C(=O)N[C@H](C(=O)N[C@@H](CO)C(=O)N[C@@H](CC(C)C)C(=O)N[C@@H](CCCNC(=N)N)C(=O)N[C@@H](Cc1c[nH]cn1)C(=O)N[C@@H](Cc1ccc(O)cc1)C(=O)N[C@@H](Cc1ccc(O)cc1)C(=O)N[C@@H](CC(N)=O)C(=O)N[C@@H](Cc1c[nH]c2ccccc12)C(=O)N[C@@H](CC(C)C)C(=O)N[C@H](C(=O)N[C@@H](CCCNC(=N)N)C(=O)N[C@@H](CCC(N)=O)C(=O)N[C@@H](CCCNC(=N)N)C(=O)N[C@@H](Cc1ccc(O)cc1)C(N)=O)[C@@H](C)O)C(C)C)C(C)C [Compound 204, N{alpha-4}-(3-methylbutanoyl)-N{epsilon-7}-[2-(2-{2-[2-(2-{2-[(4S)-4-carboxy-4-(17-carboxyheptadecanamido)butanamido]ethoxy}ethoxy)acetamido]ethoxy}ethoxy)acetamido]-[4A,7K,9E,11E,17V,18Q,22V,28Y,30W,31L]hPYY (4-36)] (Isovaleryl-APEK([AEEA-AEEA-γGlu-C18 diacid])PEEEASPEEVQRYYVSLRHYYNWLTRQRY-NH2)
1.07 nM	CC(C)CC(=O)N[C@@H](C)C(=O)N1CCC[C@H]1C(=O)N[C@@H](C)C(=O)N[C@@H](CCCCNC(=O)COCCOCCNC(=O)COCCOCCNC(=O)CC[C@H](NC(=O)CCCCCCCCCCCCCCCCC(=O)O)C(=O)O)C(=O)N1CCC[C@H]1C(=O)N[C@@H](CCC(=O)O)C(=O)N[C@@H](C)C(=O)N[C@@H](CC(=O)O)C(=O)N[C@@H](C)C(=O)N[C@@H](CCC(=O)O)C(=O)N1CCC[C@H]1C(=O)N[C@@H](CCC(=O)O)C(=O)N[C@@H](CCC(=O)O)C(=O)N[C@@H](CC(C)C)C(=O)N[C@@H](CCC(N)=O)C(=O)N[C@@H](CCCNC(=N)N)C(=O)N[C@@H](Cc1ccc(O)cc1)C(=O)N[C@@H](Cc1ccc(O)cc1)C(=O)N[C@H](C(=O)N[C@@H](CO)C(=O)N[C@@H](CC(C)C)C(=O)N[C@@H](CCCNC(=N)N)C(=O)N[C@@H](Cc1c[nH]cn1)C(=O)N[C@@H](Cc1ccc(O)cc1)C(=O)N[C@@H](Cc1ccc(O)cc1)C(=O)N[C@@H](CC(N)=O)C(=O)N[C@@H](Cc1c[nH]c2ccccc12)C(=O)N[C@@H](CC(C)C)C(=O)N[C@H](C(=O)N[C@@H](CCCNC(=N)N)C(=O)N[C@@H](CCC(N)=O)C(=O)N[C@@H](CCCNC(=N)N)C(=O)N[C@@H](Cc1ccc(O)cc1)C(N)=O)[C@@H](C)O)C(C)C [Compound 207, N{alpha-4}-(3-methylbutanoyl)-N{epsilon-7}-[2-(2-{2-[2-(2-{2-[(4S)-4-carboxy-4-(17-carboxyheptadecanamido)butanamido]ethoxy}ethoxy)acetamido]ethoxy}ethoxy)acetamido]-[4A,6A,7K,9E,10A,13E,18Q,22V,28Y,30W,31L]hPYY (4-36)]

Reference: US12559529B2, “NPY2 receptor agonists” (Boehringer Ingelheim International GmbH, priority 2019, dated 2026)
